Earlier results on two molecules are cited in US20220288273A1, “OSTEOINDUCTIVE MODIFIED GELATIN HYDROGELS AND METHODS OF MAKING AND USING THE SAME” (THE REGENTS OF THE UNIVERSITY OF CALIFORNIA, priority 2019, published 2022).

Each structure is given as a SMILES string.

On to `CC(C)(O)C(=O)c1ccc(OCCO)cc1` [Irgacure-2959, 2-Hydroxy-4′-(2-hydroxyethoxy)-2-methylpropiophenone], for which the water solubility entry is on record as “low water solubility”.
In the case of `Cc1cc(C)c(C(=O)P(=O)([O-])c2ccccc2)c(C)c1.[Li+]` [LAP, Lithium phenyl-2,4,6-trimethylbenzoylphosphinate], the water solubility entry is listed as “high water solubility”.
